“Also recorded” adds a separate entry of the source.

The subject of test [1] is human neutrophils. The experiment in a line: TNF triggered degranulation of neutrophils (lactoferrin and myeloperoxidase release, ELISA). The class given is cell-based. Conditions: for myeloperoxidase (MPO) release triggered by TNF: marker of azurophil granule; for lactoferrin (LF) release triggered by TNF: marker of specific granule. The method, then: Respiratory burst was measured as described elsewhere (De la Harpe et al., “A Semi-Automated Micro-Assay for H2O2 Release by Human Blood Monocytes and Mouse Peritoneal Macrophages,” J Immunol Methods 78:323-336 (1985), which is hereby incorporated by reference in its entirety). Briefly, 96-well flat-bottomed plates (Primaria, Falcon) were coated with 50 μl/well of FBS in 5% CO2 at 37° C. for at least 1 h and washed three times with 0.9% saline. Neutrophils (1.5×10^4) were added to triplicate wells containing 100 μl of reaction mixture (2.4 nm scopoletin, 0.5 μg horseradish peroxidase (HRP), and 1 mM NaN3) and stimulated with either buffer control, TNF (PreproTech, London, UK) or phorbol myristate acetate (PMA), each at 100 ng/ml. The reduction of scopoletin by H2O2 was recorded every 15 min on a plate-reading fluorometer until H2O2 release reached plateau and the amount of H2O2 released calculated as described (De la Harpe et al., “A Semi-Automated Micro-Assay for H2O2 Release by Human Blood Monocytes and Mouse Peritoneal Macrophages,” J Immunol Methods 78:323-336 (1985), which is hereby incorporated by reference in its entirety). The supernatant from the H2O2 release assay with 1.5×10^4 neutrophils was used to measure degranulation using lactoferrin (LF) or myeloperoxidase (MPO) ELISA kit (Oxis International, Inc., Portland, Oreg.). Spontaneous cell death from the same supernatant was measured using Cytotoxicity Detection Kit (Roche Molecular Biochemicals, Nutley, N.J.). The total cell content of LF, MPO, and lactate dehydrogenase (LDH) was determined after lysing cells with 1% Triton X100. LDH is a cytosolic enzyme whose release indicates cell lysis, such that high release of LF or MPO in the face of low release of LDH is taken as a measure of degranulation.
To test whether any of these compounds has any role in degranulation, the release of lactoferrin (LF) (as a marker of specific granule) and myeloperoxidase (MPO, as a marker of azurophil granule) were measured in the supernatant. […] The effect of Comp I on LF release was inconclusive due to high background release of LF in non-stimulated cells.

For test [2], the system named is human neutrophils. Briefly: Reversibility of inhibition of TNF triggered respiratory burst after washing. The class given is cell-based. Conditions: washed twice with cold KRPG before TNF 100 ng/ml. The protocol: Neutrophils were incubated with test compounds I-V or DMSO at 37° C. for 30 min in FBS coated tubes (Falcon, Cat. Number 352063), washed twice with cold KRPG, and plated in 96 well plates before stimulation with TNF (100 ng/ml) or an equivalent volume of KRPG buffer as a control. On a separate plate, compounds were added back to the neutrophils that were washed off compounds, and cells were stimulated to ensure neutrophils' capacity to respond. Neutrophils incubated with each compound without washing were also stimulated for comparison.

For the next test, the system named is Pyk2. Briefly: TNF-induced phosphorylation of Pyk2 Y402 in neutrophils (western blot). In kind it is cell-based, human. The method, then: Tissue culture plates (Primaria, Falcon) were coated with 3 ml of FBS in 5% CO2 at 37° C. for at least 1 h and washed twice with 0.9% saline. Isolated human neutrophils (1.5×10^6) were added to each plate containing 4 ml of reaction mixture, incubated with each compound at 37° C. for 30 min, and stimulated with either buffer control or TNF (100 ng/ml). When cells were fully spread (20-40 min), they were treated with 5 mM diisopropylfluorophosphate to inhibit serine proteases and lysed with either 125 μl of SDS lysis buffer (10 mM Tris-HCl, pH 7.6, 150 mM NaCl, 1% SDS, 1 mM PMSF, 1 mM Na pyrophosphate, 1 mM NaF, 1 mM vanadate, 5 μg/ml each of aprotinin, leupeptin, chymostatin, pepstatin A) for western blot, or with 200 μl of non-denaturing modified RIPA buffer (10 mM Tris-HCl, pH 7.6, 150 mM NaCl, 1% Triton-X100, 1 mM PMSF, 1 mM Na pyrophosphate, 1 mM NaF, 1 mM vanadate, 5 μg/ml each of aprotinin, leupeptin, chymostatin, pepstatin A) for immunoprecipitation. The cell lysate was passed through a 26-gauge needle six times to shear DNA and centrifuged at 20,000×g for 15 min to remove cell debris and DNA. The protein concentration was determined using a Bio-Rad (Indianapolis, Ind.) kit. […] After further washing with TBST, bound antibody was detected by enhanced chemiluminescence (Pierce ECL, Amersham Pharmacia, Piscataway, N.J.). […]

The subject of test [3] is human neutrophils. Briefly: Killing of bacteria by neutrophils. The class given is cell-based.

With `O=C(CSc1nc2ccccc2s1)N/N=C/c1cc([N+](=O)[O-])ccc1O` [Comp IV, (Benzothiazol-2-ylsulfanyl)-acetic acid (2-hydroxy-5-nitro-benzylidene) -hydrazide], in the test with human neutrophils [1], the “myeloperoxidase (MPO) release triggered by TNF” value (shortened to “myeloperoxidase”) was “almost complete inhibition” and the “lactoferrin (LF) release triggered by TNF” value (shortened to “lactoferrin”) was “partially inhibited”.
Consider `O=C1CC(c2ccccc2)=NN1c1cccc(Cl)c1` [Comp II, 2-(3-Chloro-phenyl)-5-phenyl-2,4-dihydro-pyrazol-3-one], for which, in the test on human neutrophils [2], the “reversibility of inhibition of TNF triggered respiratory burst” value is “greatest reversibility”. Further, in the test on human neutrophils [1], the “degranulation of neutrophils (general statement)” value is recorded as “takes place normally; also recorded: sparing”, the “myeloperoxidase” value is reported as “very moderate inhibition” and the “lactoferrin” value is reported as “did not block”. In addition, the “TNF-induced phosphorylation of Pyk2 Y402 (activation of Pyk2)” value in the test with Pyk2 is on record as “did not block”. The “bacterial killing ability of PMNs (general statement)” value in the test on human neutrophils [3] is recorded as “sparing”.
Consider `Cc1nc(N/N=C/c2ccccc2O)c2c3c(sc2n1)CCCC3` [Comp I, 2-[(2-Methyl-5,6,7,8-tetrahydro-benzo[4,5]thieno [2,3-a]pyrimidin-4-yl)-hydrazonomethyl]-phenol], for which, in the test on human neutrophils [1], the “myeloperoxidase” value is “almost complete inhibition” and the “lactoferrin” value is “inconclusive”.
For the compound `C(=N\Nc1ncnc2sc3c(c12)CCCC3)/c1cccnc1` [Comp III, N-Pyridin-3-ylmethylene-N-(5,6,7,8-tetrahydro-benzo[4,5] [2,3-a]pyrimidin-4-yl)-hydrazine], in the test on human neutrophils [1], the “myeloperoxidase” value was “almost complete inhibition” and the “lactoferrin” value is on record as “partially inhibited”.

For the origin of these results see patent publication US7977366B2, “Treating an inflammatory disorder or inhibiting respiratory burst in adherent neutrophils with chemical inhibitors of neutrophil activation” (Cornell Research Foundation, Inc., priority 2003, dated 2011).
